# Measurements reported in patent publication US9795692B2, “Ocular detection of amyloid proteins” (SYSTEM OF SYSTEMS ANALYTICS, INC., priority 2011, dated 2017).
# Columns and labels:
# Format in all cases: binding
# [1] = target: T1, non-Congophilic amyloid protein aggregates in human brain tissue (Homo sapiens, UniProt P05067); test: Staining of human hippocampal region and cerebral cortex compared with Congo Red
# T1 construct: from tissue; host or cells: human post-mortem brain tissue (neocortex, hippocampus, cerebral cortex)
# T1 sequence (P05067 672-713 limits assumed): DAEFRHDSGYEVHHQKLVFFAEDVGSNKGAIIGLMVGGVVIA
# [2] = system: amyloid protein aggregates in brain tissue of transgenic mice with Alzheimer's Disease (Tg AD); test: Staining of murine brain tissue with FITC-labeled probe; conditions: age-matched non-Tg murine brain; dentate gyrus or midbrain
# Protocol: Probes for detecting amyloid protein aggregates in brain tissue of transgenic mice with Alzheimer's Disease (Tg AD) were prepared in accordance with the methods described herein.
# [3] = system: amyloid aggregates in human eyes (optic nerve, ciliary retina, retina, drusen); test: Staining of sectioned human donor eyes
# Description: Human eyes from donors with and without Alzheimer's Disease were obtained from the Georgia Eye Bank.
# [4] = patient (3), 11-1755/6, person, Alzheimer's Disease and dementia
# [5] = patient (4), 11-1767-8, person, Alzheimer's Disease
Compound,structures stained in the cerebral cortex ([1]; cerebral cortex of patients with Alzheimer's Disease),staining of morphological structures within the brain parenchyma ([1]; human brain parenchyma),"structures stained in the hippocampal region ([1]; human brain tissue, hippocampal region)",staining of non-Tg control brain tissue [2],"binding to amyloid aggregates in the optic nerve, intensity ([3]; human eye sections, optic nerve, PEP-11 compared with BC750)","staining of the retina, intensity and homogeneity ([3]; human eye sections, retina)","retinal staining: distinguishing Alzheimer's Disease from non-Alzheimer's Disease tissue ([3]; human eye sections, retina, AD vs non-AD eyes)","binding in optic nerve and ciliary retina ([3]; human eye sections, optic nerve immediately posterior to lamina cribrosa, ciliary retina)",manner of optic nerve staining ([3]; optic nerve of Alzheimer's Disease patients),"ciliary retina background staining [3, 4]","optic nerve staining [3, 4]","ciliary retina background staining [3, 5]","optic nerve staining [3, 5]","staining of drusen ([3]; patient eyes, generally)"
Nc1c(/N=N/c2ccc(-c3ccc(/N=N/c4cc(S(=O)(=O)O)c5ccccc5c4N)cc3)cc2)cc(S(=O)(=O)O)c2ccccc12 [Congo Red],stained congophilic neuro-fibrillary tangles,Neither Congo Red nor PEP-11 stained any morphological structure,stained amyloid plaques at the center of the plaques,–,–,–,–,–,–,–,–,–,–,–
"PEP-11: WT17-35 with FITC and d-Arginine at C-Terminal (CLVFFAEDVGSNKGAIIGLMC; FITC label, C-terminal D-arginine; /note=“Description of Artificial Sequence Synthetic probe”)",–,–,–,minimally stained,significantly greater,ubiquitous background staining of retinal tissue,less intensely in non-Alzheimer's Disease eyes as compared to Alzheimer's Disease eyes,bound to amyloid aggregates,dose gradient manner,moderate and homogenous,moderate,moderate and homogenous,intense,appears to stain drusen
